# In PMC8445934, “Transformation of tenofovir into stable ProTide nanocrystals with long-acting pharmacokinetic profiles” (Nature Communications, 2021):
# “And” between values parts separate entries of the source, which are not always exact repeats. Equal entries are not always repeated. Where two headings read alike, the source gives them in different places.
# Experiments:
# human MDM = settings: for prodrug measurements (uptake) / prodrug measurements (retention): 10 uM; for prodrug measurements (uptake): replicates; for prodrug measurements (retention): MDM
# Description: Human MDMs were used for in vitro formulation assessments. MDM formulation uptake and retention studies were performed in flat-bottom, 12-well plates at a density of 1.2 × 10^6 cells/well, with each treatment completed in triplicate. […] At 2, 4, and 8 h after treatment, the cells were collected, processed, and analyzed for drug content by UPLC-UV/vis as previously described[12],[13],[56],[63]. […] Then, a culture medium (without drug) was added, and a half-media volume was replaced every other day. MDMs were collected at days 1, 5, 10, 15, and 30 after treatment, and then analyzed for intracellular drug content by UPC-UV/vis. […] MDMs were then collected immediately after the 8 h treatment and analyzed by an FEI Tecnai G2 Spirit transmission electron microscope as previously described[11],[12],[14].
# Intracellular TFV-DP was extracted from human MDM or rat PBMCs as follows. […] At 2, 4, and 8 h after treatment, MDM was washed with PBS to remove the excess free drug. The cells were then collected in 70% MS-grade MeOH. TFV-DP from MDM was extracted as follows. Sep-Pak QMA cartridges (360 mg, 37–55 μm; Waters, Milford, MA) were used to separate TFV-DP from TFV- and mono-phosphate counterparts. The QMA cartridges were conditioned with 10 ml of 500 mM KCl, followed by 10 ml of 5 mM KCl. The sample (200 μL) was loaded onto the cartridges and washed with 12 ml of 75 mM KCl. The triphosphate (TP) fraction was eluted with 3 ml of 500 mM KCl. The pH of the TP fraction was lowered to 4.25 by adding 45 μl ammonium acetate buffer (pH 4, 10 mM) per ml eluate, and dephosphorylated by adding one unit of type XA sweet potato acid phosphatase (Sigma-Aldrich) per ml eluate (3 μL per sample) and incubating at 37 °C for 45 min. […] Samples were then loaded onto Waters OASIS HLB cartridges (60 mg, 30 μm; Waters, Milford, MA) pre-conditioned with 3 ml 100% methanol followed by 3 ml 1% TFA to remove salts. Salts were removed from the dephosphorylated samples with 3.5 ml of 1% TFA in water, then eluted with 1.5 ml 100% methanol and evaporated under vacuum. Once dry, the residue was stored at −80 °C until UPLC–MS/MS analyses. Samples were reconstituted in 100 μL of 10% MeOH, 90% 7.5 mM ammonium bicarbonate pH 7 in LC-MS grade water.
# TFV-DP: Parent TFV was generated from TFV-DP during sample preparation and then subjected to UPLC-MS/MS analyses. The UPLC-MS/MS system was comprised of a Waters ACQUITY UPLC system coupled to a Waters Xevo TQ-XS triple quadrupole mass spectrometer (Waters, Milford, MA) with electrospray ionization (ESI) source. A CSH C18 analytical column (2.1 × 100 mm, 1.7 µm) equipped with a guard column (Waters, Milford, MA) at 30 °C was used for analyte separation. Samples were maintained at 4 °C during analysis. […] Mobile phase A consisted of 7.5 mM ammonium bicarbonate in water (MS grade, Fisher) with pH adjusted to 7.0 with glacial acetic acid (ACS grade, Sigma). Mobile phase B was 100% methanol (MS grade, Fisher). The flow rate was 0.22 mL/min. […] B was then held at 90% for 0.4 min before returning to initial conditions. Spectra were analyzed and quantified by MassLynx software version 4.1. Quantitation was based upon drug peak area to internal standard peak area ratios.
# HIV-1ADA = assay: Long-term antiretroviral efficacy in MDM after single 8 h treatment (HIV-1 RT activity, p24); type: cell-based; settings: for HIV-1 RT activity: MDM, 10 µM (Figure 4D)
# Description: To determine long-term antiretroviral efficacy following a single treatment, MDMs were plated in flat-bottom 12-well plates at a density of 1.2 × 10^6 cells/well. […] After treatment, the cells were washed twice with PBS and cultured in a fresh culture medium without drug with half-media replacement every other day. On days 1, 5, 10, 15, 20, 25, and 30 following treatment, the cells were infected with HIV-1ADA (a macrophage-tropic viral strain) at a multiplicity of infection of 0.1 infectious particles/cell for 8 h. MDM were cultured, and media samples collected on day 10 for the measurement of HIV reverse transcriptase (RT) activity as previously described[64],[65]. Cells were fixed in 2% PFA at each time point, and expression of the HIV-1p24 antigen was determined by immunocytochemistry. […] After 4 h of viral challenge, the cells were washed with PBS and given fresh media that contained the same concentrations of drug (0.00005–5,000 nM). Cell supernatants were collected 10 days later and assayed for HIV-1 RT activity as described above. Replicate studies were performed in CEM-ss CD4+ T-cell cultures. Specifically, cells were plated in 96-well plates, centrifuged at 650 × g for 5 min, and resuspended in (0.1–1,000 nM) drug-containing media for 1 h. The subsequent challenge with HIV-1NL4–3-eGFP, cell culture, sample collection, and determination of HIV-1 RT activity were performed as previously reported[13],[15].
compound,measurement,setting,value
"CC(C)OC(=O)[C@H](C)N[P@](=O)(CO[C@H](C)Cn1cnc2c(N)ncnc21)Oc1ccccc1 [TAF, tenofovir alafenamide]",time by which no drug was detectable in MDM,human MDM; 10 μM,≤ 24 h
same,prodrug measurements (uptake),human MDM; 2 hours,2.762 and 0.9713 and 2.037
same,prodrug measurements (uptake),human MDM; 4 hours,0.3098
same,Intracellular prodrug concentration,"human MDM; 10 μM, 8 h",0.38 μg/10^6 cells
same,prodrug measurements (uptake),human MDM; 8 hours,0.3813
same,prodrug measurements (retention),"human MDM; day 1, replicates",0
same,prodrug measurements (retention),"human MDM; day 5, replicates",0
same,prodrug measurements (retention),"human MDM; day 10, replicates",0
same,prodrug measurements (retention),"human MDM; day 15, replicates",0
same,prodrug measurements (retention),"human MDM; day 30, replicates",0
same,viral breakthrough,"HIV-1ADA; 10 μM, day 30",complete viral breakthrough
same,inhibition at 10 µM,"HIV-1ADA; Human immunodeficiency virus 1, 240 h, read-out: viral inhibition",84.5%
same,HIV-1 RT activity,"HIV-1ADA; challenge day 1, replicates",1.694 % of postive control and 1.963 % of postive control and 1.344 % of postive control and 1.665 % of postive control and 1.247 % of postive control and 0.8808 % of postive control
same,HIV-1 RT activity,"HIV-1ADA; challenge day 5, replicates",1.516 % of postive control and 1.942 % of postive control and 1.963 % of postive control and 1.828 % of postive control and 2.306 % of postive control and 0.4466 % of postive control
same,HIV-1 RT activity,"HIV-1ADA; challenge day 10, replicates",13.8971 % of postive control and 15.2412 % of postive control and 16.845 % of postive control and 11.6649 % of postive control and 19.6336 % of postive control and 17.0654 % of postive control
same,HIV-1 RT activity,"HIV-1ADA; challenge day 15, replicates",10.4755 % of postive control and 3.747 % of postive control and 7.537 % of postive control and 13.2434 % of postive control and 32.8105 % of postive control
same,HIV-1 RT activity,"HIV-1ADA; challenge day 30, replicates",86.3496 % of postive control and 48.9086 % of postive control and 79.0354 % of postive control and 54.8629 % of postive control
